# Laboratory results: US11000033B2, “Ketone or oxime compound, and herbicide” (NISSAN CHEMICAL CORPORATION, priority 2014, dated 2021)
# Assays:
# Assay type in all cases: in vivo
# Scirpus juncoides = assay: Test Example 2: herbicidal activity, application during weed generation in submerged conditions (symbol B); settings: Table 23; application herbicide amount 320 g/ha; grade 0-5 by criteria of Test Example 1
# In short: (§1)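 Each pot contained alluvial soil under 4 cm of water with seeds of all three weeds sown together. Following growth at 25° C. to 30° C. to the one- to two-leaf stage, the floodwater received diluted emulsion at a predetermined amount; visual assessment followed at 3 weeks.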
# Alopecurus myosuroides = assay: Test Example 5: herbicidal effect by foliage application, plastic box (symbol J); settings: 320 g/ha, 3 weeks after application
# In short: (§2)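 Emulsion formulation, diluted with water to the intended rate, was applied uniformly to leaves by small sprayer. Recipients were 14-day greenhouse-grown seedlings (25° C. to 30° C.). Assessment followed at 3 weeks.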
# Veronica persica = assay: Test Example 4: herbicidal effect by soil treatment (symbol R); settings: 320 g/ha
# In short: (§3)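 Seeds were sown in sterilized diluvial soil, covered with about 1.5 cm of soil, and the soil surface was sprayed with a water-diluted emulsion of the compound at a predetermined rate. Plants grew in a greenhouse at 25° C. to 30° C.; effects were scored visually 3 weeks after application.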
# rapeseed = assay: Test Example 5: effect on crop by foliage application, plastic box (symbol g); settings: 320 g/ha, 3 weeks after application
# In short: (§4)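 A greenhouse held between 25° C. and 30° C. was used to grow plants sown spot-wise, beneath ~1.5 cm of soil, in boxes of sterilized diluvial soil.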
# beet [1] = assay: Test Example 5: effect on crop by foliage application, plastic box (symbol f); settings: 320 g/ha, 3 weeks after application
# In short: as §4
# Leptochloa chinensis = assay: Test Example 3: herbicidal effect by foliage application, Wagner pot (symbol D); settings: application herbicide amount 320 g/ha
# In short: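 Seeds sown in alluvial soil kept under 0.1–0.5 cm water, greenhouse 25–30 °C; 14 d growth. Leaves treated by small sprayer with water-diluted emulsion at a predetermined rate. Effect graded by set scale, 3 weeks.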
# Digitaria ciliaris = assay: Test Example 5: herbicidal effect by foliage application, plastic box (symbol F); settings: 320 g/ha, 3 weeks after application
# In short: as §2
# beet [2] = assay: Test Example 4: effect on crop by soil treatment (symbol f); settings: 320 g/ha
# In short: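 Plants grew in a 25° C. to 30° C. greenhouse after spot-sowing of seeds, including beet, rapeseed, wheat and rice, into sterilized diluvial soil under roughly 1.5 cm of cover soil.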
# Avena fatua = assay: Test Example 5: herbicidal effect by foliage application, plastic box (symbol I); settings: 320 g/ha, 3 weeks after application
# In short: as §2
# Monochoria vaginalis = assay: Test Example 2: herbicidal activity, application during weed generation in submerged conditions (symbol C); settings: Table 23; application herbicide amount 320 g/ha; grade 0-5 by criteria of Test Example 1
# In short: as §1
# [3] = system: Echinochloa oryzacola Vasing.; assay: Test Example 1: herbicidal activity, application before weed generation in submerged conditions (symbol A); settings: application herbicide amount 320 g/ha
# In short: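 Greenhouse growth at 25–30 °C lasted 3 weeks after treatment, when each weed was graded 0–5 by herbicidal ratio. Treatment was a diluted emulsion applied to the water surface of 4 cm-submerged alluvial soil on the sowing day.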
# Setaria viridis = assay: Test Example 4: herbicidal effect by soil treatment (symbol G); settings: 320 g/ha
# In short: as §3
SMILES,"Herbicidal effect grade, B: Scirpus juncoides (Scirpus juncoides)","J: Alopecurus myosuroides, herbicidal effect (criteria 0-5) (Alopecurus myosuroides)","R: Veronica persica, herbicidal effect grade (Veronica persica)","g: rapeseed, effect on crop (criteria 0-5) (rapeseed)","f: beet, effect on crop (criteria 0-5) (beet [1])","herbicidal effect on D (Leptochloa chinensis), grade 0-5 (Leptochloa chinensis)","F: Digitaria ciliaris, herbicidal effect (criteria 0-5) (Digitaria ciliaris)","f: beet, effect grade on crop (beet [2])","I: Avena fatua, herbicidal effect (criteria 0-5) (Avena fatua)","Herbicidal effect grade, C: Monochoria vaginalis (Monochoria vaginalis)","Herbicidal effect grade, A: Echinochloa oryzacola Vasing. [3]","G: Setaria viridis, herbicidal effect grade (Setaria viridis)"
CON=C(C)CC1CC(OC(=O)COc2ccc(C(C)=O)cc2)=C(c2c(C)cc(C)cc2C)C1=O (stereo not drawn) [1-080],4 (Herbicidal ratio of 70% or higher and lower than 90%),5 (Herbicidal ratio of 90% or more (almost completely withered)),0 (Herbicidal ratio of 5% or lower (almost no effect)),4 (Herbicidal ratio of 70% or higher and lower than 90%),0 (Herbicidal ratio of 5% or lower (almost no effect)),5 (Herbicidal ratio of 90% or more (almost completely withered)),5 (Herbicidal ratio of 90% or more (almost completely withered)),0 (Herbicidal ratio of 5% or lower (almost no effect)),5 (Herbicidal ratio of 90% or more (almost completely withered)),2 (Herbicidal ratio of 20% or higher and lower than 40%),5 (Herbicidal ratio of 90% or more (almost completely withered)),5 (Herbicidal ratio of 90% or more (almost completely withered))
CON=C(C)CC1CC(OC(=O)COc2ccc(Br)cc2)=C(c2c(C)cc(C)cc2C)C1=O (stereo not drawn) [1-081],4 (Herbicidal ratio of 70% or higher and lower than 90%),5 (Herbicidal ratio of 90% or more (almost completely withered)),0 (Herbicidal ratio of 5% or lower (almost no effect)),5 (Herbicidal ratio of 90% or more (almost completely withered)),0 (Herbicidal ratio of 5% or lower (almost no effect)),5 (Herbicidal ratio of 90% or more (almost completely withered)),5 (Herbicidal ratio of 90% or more (almost completely withered)),0 (Herbicidal ratio of 5% or lower (almost no effect)),5 (Herbicidal ratio of 90% or more (almost completely withered)),3 (Herbicidal ratio of 40% or higher and lower than 70%),5 (Herbicidal ratio of 90% or more (almost completely withered)),5 (Herbicidal ratio of 90% or more (almost completely withered))
CON=C(C)CC1CC(OC(=O)COc2ccc(I)cc2)=C(c2c(C)cc(C)cc2C)C1=O (stereo not drawn) [1-082],5 (Herbicidal ratio of 90% or more (almost completely withered)),5 (Herbicidal ratio of 90% or more (almost completely withered)),0 (Herbicidal ratio of 5% or lower (almost no effect)),4 (Herbicidal ratio of 70% or higher and lower than 90%),0 (Herbicidal ratio of 5% or lower (almost no effect)),5 (Herbicidal ratio of 90% or more (almost completely withered)),5 (Herbicidal ratio of 90% or more (almost completely withered)),0 (Herbicidal ratio of 5% or lower (almost no effect)),5 (Herbicidal ratio of 90% or more (almost completely withered)),3 (Herbicidal ratio of 40% or higher and lower than 70%),5 (Herbicidal ratio of 90% or more (almost completely withered)),5 (Herbicidal ratio of 90% or more (almost completely withered))
CON=C(C)CC1CC(OC(=O)COc2ccc3ccccc3c2)=C(c2c(C)cc(C)cc2C)C1=O (stereo not drawn) [1-083],4 (Herbicidal ratio of 70% or higher and lower than 90%),5 (Herbicidal ratio of 90% or more (almost completely withered)),0 (Herbicidal ratio of 5% or lower (almost no effect)),4 (Herbicidal ratio of 70% or higher and lower than 90%),0 (Herbicidal ratio of 5% or lower (almost no effect)),5 (Herbicidal ratio of 90% or more (almost completely withered)),5 (Herbicidal ratio of 90% or more (almost completely withered)),0 (Herbicidal ratio of 5% or lower (almost no effect)),5 (Herbicidal ratio of 90% or more (almost completely withered)),3 (Herbicidal ratio of 40% or higher and lower than 70%),5 (Herbicidal ratio of 90% or more (almost completely withered)),5 (Herbicidal ratio of 90% or more (almost completely withered))
CON=C(CC1CC(O)=C(c2c(C)cc(C)cc2C)C1=O)C1CCCCC1 (stereo not drawn) [1-085],0 (Herbicidal ratio of 5% or lower (almost no effect)),3 (Herbicidal ratio of 40% or higher and lower than 70%),0 (Herbicidal ratio of 5% or lower (almost no effect)),1 (Herbicidal ratio of 5% or higher and lower than 20%),0 (Herbicidal ratio of 5% or lower (almost no effect)),4 (Herbicidal ratio of 70% or higher and lower than 90%),3 (Herbicidal ratio of 40% or higher and lower than 70%),0 (Herbicidal ratio of 5% or lower (almost no effect)),3 (Herbicidal ratio of 40% or higher and lower than 70%),0 (Herbicidal ratio of 5% or lower (almost no effect)),4 (Herbicidal ratio of 70% or higher and lower than 90%),5 (Herbicidal ratio of 90% or more (almost completely withered))
CON=C(C)CC1CC(OC(=O)C(C)Oc2ccc(Oc3cnc4cc(Cl)ccc4n3)cc2)=C(c2c(C)cc(C)cc2C)C1=O (stereo not drawn) [1-087],5 (Herbicidal ratio of 90% or more (almost completely withered)),5 (Herbicidal ratio of 90% or more (almost completely withered)),0 (Herbicidal ratio of 5% or lower (almost no effect)),4 (Herbicidal ratio of 70% or higher and lower than 90%),4 (Herbicidal ratio of 70% or higher and lower than 90%),5 (Herbicidal ratio of 90% or more (almost completely withered)),5 (Herbicidal ratio of 90% or more (almost completely withered)),4 (Herbicidal ratio of 70% or higher and lower than 90%),5 (Herbicidal ratio of 90% or more (almost completely withered)),1 (Herbicidal ratio of 5% or higher and lower than 20%),5 (Herbicidal ratio of 90% or more (almost completely withered)),5 (Herbicidal ratio of 90% or more (almost completely withered))
CON=C(C)CC1CC(OC(=O)C2=CCCC2)=C(c2c(C)cc(C)cc2C)C1=O (stereo not drawn) [1-088],5 (Herbicidal ratio of 90% or more (almost completely withered)),5 (Herbicidal ratio of 90% or more (almost completely withered)),0 (Herbicidal ratio of 5% or lower (almost no effect)),4 (Herbicidal ratio of 70% or higher and lower than 90%),0 (Herbicidal ratio of 5% or lower (almost no effect)),5 (Herbicidal ratio of 90% or more (almost completely withered)),5 (Herbicidal ratio of 90% or more (almost completely withered)),0 (Herbicidal ratio of 5% or lower (almost no effect)),5 (Herbicidal ratio of 90% or more (almost completely withered)),3 (Herbicidal ratio of 40% or higher and lower than 70%),5 (Herbicidal ratio of 90% or more (almost completely withered)),5 (Herbicidal ratio of 90% or more (almost completely withered))
